From ChEMBL document CHEMBL1201862, “PubChem BioAssay data set” (2004)
Activity calls are given as the source filed them.

Legend:
[1] = biological target: T1, Corticotropin-releasing factor receptor 2/Corticotropin-releasing factor-binding protein (Homo sapiens, UniProt P24387+Q13324); test: Dose Response confirmation of uHTS hits for small molecule antagonists of the CRF-binding protein and CRF-R2 receptor complex.; type: functional; conditions: read-out: IC50_Mean
T1 sequence (Q13324 whole entry): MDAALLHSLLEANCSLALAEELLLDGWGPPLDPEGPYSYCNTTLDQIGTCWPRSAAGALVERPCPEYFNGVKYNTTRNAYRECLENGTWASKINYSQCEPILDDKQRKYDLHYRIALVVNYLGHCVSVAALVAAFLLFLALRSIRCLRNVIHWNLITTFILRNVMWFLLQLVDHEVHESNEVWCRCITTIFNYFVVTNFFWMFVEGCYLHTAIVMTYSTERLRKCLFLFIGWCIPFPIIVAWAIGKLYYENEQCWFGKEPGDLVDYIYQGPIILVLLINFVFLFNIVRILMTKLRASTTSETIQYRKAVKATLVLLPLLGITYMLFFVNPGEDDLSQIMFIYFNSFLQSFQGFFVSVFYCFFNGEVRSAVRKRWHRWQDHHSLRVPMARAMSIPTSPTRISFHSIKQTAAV
T1 sequence (P24387 whole entry): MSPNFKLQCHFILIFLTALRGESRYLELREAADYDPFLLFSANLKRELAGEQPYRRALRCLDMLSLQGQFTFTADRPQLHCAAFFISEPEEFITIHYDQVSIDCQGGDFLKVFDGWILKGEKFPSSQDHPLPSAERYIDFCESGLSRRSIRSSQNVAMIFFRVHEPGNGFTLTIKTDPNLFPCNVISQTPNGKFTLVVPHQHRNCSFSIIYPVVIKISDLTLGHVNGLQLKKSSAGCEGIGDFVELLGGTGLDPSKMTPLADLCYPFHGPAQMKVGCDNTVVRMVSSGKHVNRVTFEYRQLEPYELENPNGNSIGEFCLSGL

[2] = biological target: T1, Corticotropin-releasing factor receptor 2/Corticotropin-releasing factor-binding protein; test: activators of CRF receptor 2 with binding protein – uHTS hits, confirmation (AID 602473); type: functional; conditions: read-out: EC50_Mean
[3] = CRF-BP/CRF-R2 complex antagonists, dose response, cell-based, uHTS hits, 384-well (AID 651639); type: functional, Homo sapiens; conditions: read-out: IC50_Mean
[4] = Luminescence Cell-Based Dose Confirmation HTS to Identify Activators of 5'UTR Stem-Loop Driven Alpha-Synuclein mRNA Translation in H4 Neuroglioblastoma Cells. [Related pubchem assays: 1829 (Project Summary), 1814 (Primary HTS)]; type: functional
[5] = Luminescence Cell-Based Dose Response HTS to Identify Activators of Luciferase Translation or Activity in H4 […] Cells. [Related pubchem assays: 1829 (Project Summary), 1814 (Primary HTS)]; type: functional
H4 = test: Luminescence Cell-Based Dose Response HTS to Identify Activators of 5'UTR Stem-Loop Driven Prion Protein mRNA Translation in H4 Neuroglioblastoma Cells. [Related pubchem assays: 1829 (Project Summary), 1814 (Primary HTS)]; type: functional; conditions: Homo sapiens
[6] = biological target: T2, Heat shock factor protein 1 (Mus musculus, UniProt P38532); test: inhibition of MG132-induced HSE-luciferase signal, confirmation, cell-based, NIH3T3, luminescence, dose retest (AID 2382); type: functional;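 further: NIH3T3 fibroblasts with HSF1-driven luciferase reporter stressed by proteasome inhibitor MG132; luminescence from HSF1-driven luciferase expression after 8 hours of MG132 stress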
T2 sequence (P38532 whole entry): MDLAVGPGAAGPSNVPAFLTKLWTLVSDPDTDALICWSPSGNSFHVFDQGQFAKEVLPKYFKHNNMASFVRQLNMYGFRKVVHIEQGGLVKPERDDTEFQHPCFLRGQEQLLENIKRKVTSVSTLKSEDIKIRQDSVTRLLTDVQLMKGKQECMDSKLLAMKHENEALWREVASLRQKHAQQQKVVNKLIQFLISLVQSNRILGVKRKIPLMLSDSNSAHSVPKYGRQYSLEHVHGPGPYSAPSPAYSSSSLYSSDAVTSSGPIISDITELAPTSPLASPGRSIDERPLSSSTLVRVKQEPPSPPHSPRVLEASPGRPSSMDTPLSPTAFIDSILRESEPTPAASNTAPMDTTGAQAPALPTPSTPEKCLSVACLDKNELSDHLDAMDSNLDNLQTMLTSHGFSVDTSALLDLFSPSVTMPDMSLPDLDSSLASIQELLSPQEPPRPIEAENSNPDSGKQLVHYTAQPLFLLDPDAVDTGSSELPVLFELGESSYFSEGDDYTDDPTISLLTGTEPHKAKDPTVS

[7] = microbe, parasite or virus in culture; type: functional; conditions: Mycobacterium tuberculosis
[8] = Fluorescence-based cell-based high throughput dose response assay for inhibitors of the interaction of nucleotide-binding oligomerization domain containing 2 (NOD2) and the receptor-interacting serine-threonine kinase 2 (RIPK2).; type: functional, Homo sapiens
Paired box protein Pax-8 = Paired box protein Pax-8 (Homo sapiens, UniProt Q06710); test: inhibitors of PAX8-driven TPO luciferase reporter, dose response, RMG-I cells, cherry-pick (AID 687027); type: functional, cell-based;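 further: luciferase reporter driven by Pax8 target thyroperoxidase promoter measured by SteadyGlo luminescence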
[9] = biological target: T3, Adenosylmethionine-8-amino-7-oxononanoate aminotransferase (Mycobacterium tuberculosis, UniProt P9WQ81); test: Mycobacterium tuberculosis BioA enzyme inhibitor Measured in Biochemical System Using Plate Reader - 2163-02_Inhibitor_Dose_CherryPick_Activity.; type: functional, Mycobacterium tuberculosis UT205
T3 sequence (P9WQ81 whole entry): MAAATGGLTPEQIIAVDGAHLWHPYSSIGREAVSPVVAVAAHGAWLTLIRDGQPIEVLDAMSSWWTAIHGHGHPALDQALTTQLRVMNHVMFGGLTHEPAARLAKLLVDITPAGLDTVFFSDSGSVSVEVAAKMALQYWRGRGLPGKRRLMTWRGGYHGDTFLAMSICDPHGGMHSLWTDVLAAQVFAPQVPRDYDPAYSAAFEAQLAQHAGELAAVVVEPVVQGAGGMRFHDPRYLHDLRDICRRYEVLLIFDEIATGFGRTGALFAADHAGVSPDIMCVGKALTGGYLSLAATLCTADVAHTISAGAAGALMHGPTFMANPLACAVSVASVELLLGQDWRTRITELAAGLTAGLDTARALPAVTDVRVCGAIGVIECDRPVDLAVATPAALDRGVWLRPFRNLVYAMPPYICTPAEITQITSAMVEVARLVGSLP

[10] = biological target: Dual specificity protein kinase CLK1 (Homo sapiens, UniProt P49759); test: CLK1 kinase inhibitors, off-target check, dose response, selectivity assay for Dyrk1A inhibitor project, biochemical, cherry-picked samples (AID 588811)
[11] = biological target: Ras and Rab interactor 1/Tyrosine-protein kinase ABL1 (Homo sapiens, UniProt P00519+Q13671); type: functional;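 further: biochemical TR-FRET dose-response test measuring inhibition of binding between Rin1 and Abl proteins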
[12] = THP-1 cell cytotoxicity, dose response, cytotoxicity control for non-replicating M. tuberculosis project (AID 489025); type: functional
[13] = Luminescence Cell-Based Dose Retest to Confirm Inhibitors of Cancer Stem Cells. [Related pubchem assays (depositor defined):AID2717, AID2721]; type: functional; conditions: Homo sapiens
[14] = biological target: FAD-linked sulfhydryl oxidase ALR (Homo sapiens, UniProt P55789); test: inhibitors of human ALR sulfhydryl oxidase, dose response, biochemical, H2O2 detection, luminescence, cherry-pick (AID 493248)
[15] = biological target: T4, Microphthalmia-associated transcription factor (Homo sapiens, UniProt O75030); test: TRPM1 promoter luciferase signal decrease, dose response, MITF inhibitor project, cell-based, SK-MEL-5, cherry-picked, set 3 (AID 493073); type: functional
T4 sequence (O75030 whole entry): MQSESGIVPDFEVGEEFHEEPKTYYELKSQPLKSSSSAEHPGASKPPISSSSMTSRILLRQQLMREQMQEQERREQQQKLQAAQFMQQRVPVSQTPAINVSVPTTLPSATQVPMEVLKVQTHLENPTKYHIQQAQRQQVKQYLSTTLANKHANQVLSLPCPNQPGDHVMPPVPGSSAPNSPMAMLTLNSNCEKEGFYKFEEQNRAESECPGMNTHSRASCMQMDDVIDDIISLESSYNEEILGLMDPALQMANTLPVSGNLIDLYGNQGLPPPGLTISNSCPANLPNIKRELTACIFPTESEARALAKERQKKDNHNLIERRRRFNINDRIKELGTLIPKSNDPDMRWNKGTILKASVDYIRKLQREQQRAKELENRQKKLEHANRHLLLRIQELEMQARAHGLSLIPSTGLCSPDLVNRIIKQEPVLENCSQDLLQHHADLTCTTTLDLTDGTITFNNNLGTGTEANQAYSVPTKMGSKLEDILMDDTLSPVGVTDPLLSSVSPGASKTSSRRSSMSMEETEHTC

cells = type: functional
A-375 = test: A375 melanoma cell viability reduction, dose response, counter-screen for MITF modulator project, cherry-pick samples, set 2 (AID 540335); type: functional, cell-based; conditions: Homo sapiens
[16] = biological target: T5, Histone-lysine N-methyltransferase NSD2 (Homo sapiens, UniProt O96028); type: biochemical
T5 sequence (O96028 whole entry): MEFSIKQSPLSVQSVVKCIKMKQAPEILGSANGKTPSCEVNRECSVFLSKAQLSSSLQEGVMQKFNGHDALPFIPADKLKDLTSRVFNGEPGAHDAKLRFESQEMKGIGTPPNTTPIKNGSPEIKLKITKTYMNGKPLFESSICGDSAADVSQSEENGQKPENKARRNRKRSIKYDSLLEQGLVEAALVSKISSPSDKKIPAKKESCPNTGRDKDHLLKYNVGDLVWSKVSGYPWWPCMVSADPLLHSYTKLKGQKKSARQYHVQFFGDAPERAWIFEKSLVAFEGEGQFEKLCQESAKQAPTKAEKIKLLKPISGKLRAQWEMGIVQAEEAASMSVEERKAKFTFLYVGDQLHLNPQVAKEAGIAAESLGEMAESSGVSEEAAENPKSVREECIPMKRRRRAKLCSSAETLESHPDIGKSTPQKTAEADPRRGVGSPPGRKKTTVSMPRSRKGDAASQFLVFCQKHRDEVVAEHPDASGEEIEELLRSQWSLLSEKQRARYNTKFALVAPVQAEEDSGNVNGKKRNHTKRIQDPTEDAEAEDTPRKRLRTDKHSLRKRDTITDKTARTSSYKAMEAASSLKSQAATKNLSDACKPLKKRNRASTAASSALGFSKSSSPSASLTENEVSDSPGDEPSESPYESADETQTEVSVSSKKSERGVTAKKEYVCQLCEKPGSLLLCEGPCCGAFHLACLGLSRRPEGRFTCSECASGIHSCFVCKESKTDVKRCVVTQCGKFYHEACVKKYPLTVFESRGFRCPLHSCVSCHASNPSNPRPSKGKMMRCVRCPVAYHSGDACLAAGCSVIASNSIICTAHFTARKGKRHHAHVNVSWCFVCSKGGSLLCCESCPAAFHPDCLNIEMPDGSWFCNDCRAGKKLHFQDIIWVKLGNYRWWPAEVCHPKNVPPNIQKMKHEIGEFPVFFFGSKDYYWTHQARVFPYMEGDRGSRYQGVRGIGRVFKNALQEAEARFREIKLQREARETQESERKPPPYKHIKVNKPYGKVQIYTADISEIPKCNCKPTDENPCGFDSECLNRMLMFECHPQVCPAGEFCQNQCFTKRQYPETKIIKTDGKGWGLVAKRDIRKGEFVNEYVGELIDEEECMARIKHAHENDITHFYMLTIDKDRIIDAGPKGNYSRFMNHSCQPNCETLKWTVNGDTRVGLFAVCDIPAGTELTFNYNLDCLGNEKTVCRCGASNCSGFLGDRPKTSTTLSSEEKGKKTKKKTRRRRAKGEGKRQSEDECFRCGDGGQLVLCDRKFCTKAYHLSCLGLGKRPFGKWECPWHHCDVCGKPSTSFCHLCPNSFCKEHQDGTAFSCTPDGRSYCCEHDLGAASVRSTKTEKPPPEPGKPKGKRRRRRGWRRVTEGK

Chain of Dual specificity protein kinase CLK1 (P49759 whole entry): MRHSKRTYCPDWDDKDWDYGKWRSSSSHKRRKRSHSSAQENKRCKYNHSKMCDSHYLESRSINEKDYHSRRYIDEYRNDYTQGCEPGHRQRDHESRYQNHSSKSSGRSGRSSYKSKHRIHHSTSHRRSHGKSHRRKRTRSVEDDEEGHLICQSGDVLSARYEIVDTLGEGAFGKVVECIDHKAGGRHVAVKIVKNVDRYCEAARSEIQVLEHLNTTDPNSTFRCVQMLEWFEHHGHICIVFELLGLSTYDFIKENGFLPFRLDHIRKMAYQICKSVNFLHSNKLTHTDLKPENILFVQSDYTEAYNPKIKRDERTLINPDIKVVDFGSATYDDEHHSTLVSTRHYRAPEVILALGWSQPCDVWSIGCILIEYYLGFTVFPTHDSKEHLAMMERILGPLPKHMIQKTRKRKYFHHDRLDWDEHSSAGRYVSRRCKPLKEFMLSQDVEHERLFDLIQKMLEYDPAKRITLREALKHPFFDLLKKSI
Chain of Ras and Rab interactor 1/Tyrosine-protein kinase ABL1 (P00519 whole entry): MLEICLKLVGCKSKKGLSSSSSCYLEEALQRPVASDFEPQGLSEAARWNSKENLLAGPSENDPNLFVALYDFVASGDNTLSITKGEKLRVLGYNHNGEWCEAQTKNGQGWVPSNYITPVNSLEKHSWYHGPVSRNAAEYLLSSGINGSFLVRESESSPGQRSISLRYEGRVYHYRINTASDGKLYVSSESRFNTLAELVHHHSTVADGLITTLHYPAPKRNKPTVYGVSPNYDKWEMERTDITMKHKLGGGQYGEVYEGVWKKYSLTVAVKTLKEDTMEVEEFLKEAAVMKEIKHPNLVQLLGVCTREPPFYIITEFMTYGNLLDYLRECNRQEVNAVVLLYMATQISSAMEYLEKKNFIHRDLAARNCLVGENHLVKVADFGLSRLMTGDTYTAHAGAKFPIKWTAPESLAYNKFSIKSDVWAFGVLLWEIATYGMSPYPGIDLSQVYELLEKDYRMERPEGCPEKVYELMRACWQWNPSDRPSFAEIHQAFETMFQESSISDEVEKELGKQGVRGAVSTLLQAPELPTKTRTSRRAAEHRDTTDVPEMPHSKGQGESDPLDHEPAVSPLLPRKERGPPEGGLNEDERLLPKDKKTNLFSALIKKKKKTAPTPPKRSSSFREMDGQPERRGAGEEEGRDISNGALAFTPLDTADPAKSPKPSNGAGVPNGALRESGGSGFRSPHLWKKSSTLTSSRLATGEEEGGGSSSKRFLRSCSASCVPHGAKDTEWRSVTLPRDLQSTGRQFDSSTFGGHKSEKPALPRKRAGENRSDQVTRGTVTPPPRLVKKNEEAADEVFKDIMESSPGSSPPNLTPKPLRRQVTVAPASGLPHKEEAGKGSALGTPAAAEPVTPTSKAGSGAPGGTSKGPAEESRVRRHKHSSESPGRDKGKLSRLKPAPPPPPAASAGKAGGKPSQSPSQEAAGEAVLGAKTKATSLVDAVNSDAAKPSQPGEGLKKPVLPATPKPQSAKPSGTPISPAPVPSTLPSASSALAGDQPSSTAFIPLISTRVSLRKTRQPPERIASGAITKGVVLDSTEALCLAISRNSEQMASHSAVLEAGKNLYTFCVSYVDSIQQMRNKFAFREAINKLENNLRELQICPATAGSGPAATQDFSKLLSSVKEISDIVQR
Chain of Ras and Rab interactor 1/Tyrosine-protein kinase ABL1 (Q13671 whole entry): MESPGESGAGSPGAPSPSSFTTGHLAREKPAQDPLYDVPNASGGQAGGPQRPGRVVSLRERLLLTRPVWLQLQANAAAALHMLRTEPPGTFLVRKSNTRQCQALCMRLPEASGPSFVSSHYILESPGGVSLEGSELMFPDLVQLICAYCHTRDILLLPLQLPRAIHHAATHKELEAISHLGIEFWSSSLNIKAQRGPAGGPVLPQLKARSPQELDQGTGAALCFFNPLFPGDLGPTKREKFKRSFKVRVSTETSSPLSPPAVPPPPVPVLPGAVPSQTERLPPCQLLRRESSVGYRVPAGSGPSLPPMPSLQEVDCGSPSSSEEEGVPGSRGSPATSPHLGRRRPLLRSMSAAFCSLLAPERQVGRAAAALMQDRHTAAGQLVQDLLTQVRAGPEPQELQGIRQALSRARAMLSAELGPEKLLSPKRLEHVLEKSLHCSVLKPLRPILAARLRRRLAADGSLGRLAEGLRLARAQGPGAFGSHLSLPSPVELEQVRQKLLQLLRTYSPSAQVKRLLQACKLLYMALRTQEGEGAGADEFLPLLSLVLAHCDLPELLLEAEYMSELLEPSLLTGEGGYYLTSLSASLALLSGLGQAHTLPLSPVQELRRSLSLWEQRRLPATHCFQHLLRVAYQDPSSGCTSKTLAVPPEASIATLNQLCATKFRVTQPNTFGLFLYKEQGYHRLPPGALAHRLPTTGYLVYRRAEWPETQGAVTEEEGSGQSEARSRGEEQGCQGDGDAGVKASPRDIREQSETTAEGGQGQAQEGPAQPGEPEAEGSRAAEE
Chain of FAD-linked sulfhydryl oxidase ALR (P55789 whole entry): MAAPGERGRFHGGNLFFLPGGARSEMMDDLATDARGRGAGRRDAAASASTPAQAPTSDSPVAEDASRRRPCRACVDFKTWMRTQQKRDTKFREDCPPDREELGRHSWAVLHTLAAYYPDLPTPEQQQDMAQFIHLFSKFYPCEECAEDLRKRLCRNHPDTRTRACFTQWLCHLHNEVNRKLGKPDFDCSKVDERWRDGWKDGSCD
Chain of Paired box protein Pax-8 (Q06710 whole entry): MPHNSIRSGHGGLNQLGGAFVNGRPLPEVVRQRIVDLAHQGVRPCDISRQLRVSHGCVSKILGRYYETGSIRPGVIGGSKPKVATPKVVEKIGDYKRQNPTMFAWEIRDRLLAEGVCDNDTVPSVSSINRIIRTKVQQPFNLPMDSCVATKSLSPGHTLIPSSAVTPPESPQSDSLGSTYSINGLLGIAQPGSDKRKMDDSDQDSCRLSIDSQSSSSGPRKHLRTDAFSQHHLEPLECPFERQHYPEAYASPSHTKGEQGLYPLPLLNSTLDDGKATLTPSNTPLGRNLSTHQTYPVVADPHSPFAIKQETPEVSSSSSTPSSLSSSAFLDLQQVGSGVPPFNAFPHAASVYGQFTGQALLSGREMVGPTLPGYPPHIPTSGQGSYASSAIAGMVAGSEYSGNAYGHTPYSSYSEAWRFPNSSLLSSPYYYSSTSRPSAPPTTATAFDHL

O=C(Nc1cc(-c2ccccc2)sc1C(=O)O)c1cccc(F)c1
IC50 [1]: 23.5 µM (active)
EC50 [2]: > 53 µM (inactive)
IC50 [3]: 14.2 µM (active)

COc1ccc(Cl)cc1NC(=O)C(C)NC(c1ccccc1)c1ccccc1 (centres undefined)
IC50 [1]: 1.14 µM (active)
EC50 [2]: > 53 µM (inactive)
IC50 [3]: > 20 µM (inactive)

COc1nn(-c2ccccc2)c(=O)c(Cl)c1Cl
EC50 [4]: > 120 µM (not active)
EC50 [5]: > 120 µM (not active)
EC50 (H4): > 120 µM (not active)
EC50 [6]: 9.89 µM (active)
CC50 [7]: 8.79 µM (active)
IC50 ([8]; Homo sapiens): 4.58 µM (active)
AC50 (Paired box protein Pax-8): 6.72 µM (active)

Cc1ccccc1-n1c(SCC(=O)N(C)C2CCS(=O)(=O)C2)nc2ccccc2c1=O (centres undefined)
AC50 [9]: 2.39 µM (active)

Clc1ccc(CNc2ccnc(-c3ccc4[nH]ncc4c3)n2)cc1Cl
AC50 [10]: 0.00784 µM (active)

CCOC(=O)c1ccc(-c2ccc3ncnc(N(C)Cc4sccc4C)c3c2)o1
AC50 [10]: 1.47 µM (active)

COC(=O)c1ccc(CSc2nnc(-c3ccccc3)n2C)o1
IC50 [11]: 14.1 µM (inactive)

Cc1occc1CNc1ncnc2ccc(-c3ccc4c(c3)OCO4)cc12
AC50 [10]: 0.0118 µM (active)

COc1ccc(Cc2c(-c3ccc(OC)c(OC)c3)nc3ccc(C)cn23)c(C)c1
AC50 [9]: 2.73 µM (active)

COC(=O)C[C@H]1CC[C@@H]2[C@H](COC[C@@H](O)CN2C(=O)Nc2cccc(F)c2)O1
AC50 [9]: 13.7 µM (active)

CCc1ccc(N2C(=O)NC(=O)/C(=C\C=C\c3ccco3)C2=O)cc1
CC50 [12]: > 40 µM (active)
AC50 [13]: 1.96 µM (active)
AC50 [14]: 4.24 µM (active)
AC50 [15]: 7.53 µM (active)
IC50 (cells): 19.6 µM (active)
AC50 (A-375): 21.6 µM (active)
AC50 [16]: > 20 µM (inactive)

CCCOc1ccc(/C=C/C(=O)N2CCN(C(=O)c3ccco3)CC2)cc1OC
IC50 [11]: > 73.5 µM (inactive)

CC1=CC2OC3CC4OC(=O)C=CC=CC(C(C)O)OCC(O)C(C)CC(=O)OCC2(CC1O)C4(C)C31CO1 (centres undefined)
IC50 [8]: 49.8 µM (inactive)
